Data set [1] deals with HL-ICOs. Description: Cytotoxicity (CellTiter-Glo ATP viability) in hepatocyte-like intrahepatic cholangiocyte organoids, 48 h exposure. The format is cell-based, human. The protocol: The cell suspension was cultured in MatrigelTM (Corning, New York, NY, USA) droplets in expansion medium (EM) until organoids were formed, as previously described. EM consisted of Advanced DMEM/F12 (Life Technologies) supplemented with 1% (v/v) penicillin-streptomycin (Life Technologies), 1% (v/v) GlutaMax (Life Technologies), 10 mM HEPES (4-(2-hydroxyethyl)-1-piperazineethanesulfonic acid, Life Technologies), 2% (v/v) B27 supplement without vitamin A (Invitrogen, Carlsbad, CA, USA), 1% (v/v) N2 supplement (Invitrogen), 10 mM nicotinamide (Sigma-Aldrich, St Louis, MO, USA), 1.25 mM N-acetylcysteine (Sigma-Aldrich), 10% (v/v) R-spondin-1 conditioned medium (the Rspo1-Fc-expressing cell line was a kind gift from Calvin J. Kuo), 10 μM forskolin (Sigma-Aldrich), 5 μM A83-01 (transforming growth factor beta inhibitor; Tocris Bioscience, Bristol, UK), 50 ng/mL EGF (Invitrogen), 25 ng/mL HGF (Peprotech, Rocky Hill, NJ, USA), 0.1 μg/mL FGF10 (Peprotech) and 10 nM recombinant human ([…])-gastrin I (Sigma-Aldrich). Medium was changed twice a week. Passaging occurred every 7-10 days at ratios ranging between 1:2 and 1:4. All cultures were kept in a humidified atmosphere of 95% air and 5% CO2 at 37 °C. Organoids were primed for differentiation with BMP7 (25 ng/mL, Peprotech) through spiking EM 3 days before shifting to hepatic differentiation medium (DM). DM consisted of EM without R-spondin-1, FGF10, and nicotinamide, supplemented with 100 ng/mL FGF19 (Peprotech), 500 nM A83-01 (Tocris Bioscience), 10 μM DAPT (Selleckchem, Munich, Germany), 25 ng/mL BMP-7 (Peprotech), and […] (Sigma-Aldrich). Organoids were kept on DM for up to 12 days. For exposure experiments, differentiation assay medium was prepared to reduce antioxidants in the medium. This assay medium consisted of DMEM GlutaMAX instead of DMEM-F12 medium complemented with the same components as differentiation medium excluding GlutaMAX, B27, and NAC. In 96-well format (cytotoxicity assay), 12,000 cells in 9 μL Matrigel per well were plated at the start of differentiation, and exposure was started at day 10 of differentiation for 48 h. In 24-well format (CYP activity assay), cells were densely plated in a fresh Matrigel droplet (50 μL) upon the start of differentiation, and cells were exposed to the CYP substrate cocktail on day 12 of differentiation. […] Cells plated in 96-well plates were exposed to a concentration range (six concentrations in 2x dilution) of five known hepatotoxic compounds for 48 h (single dose). Acetaminophen (CAS 103-90-2; 30 mM) and valproic acid (CAS 1069-66-5; 10 mM) were directly dissolved in assay medium (previously described for each hepatic cell model). […] For the latter, vehicle control (0.5% (v/v) DMSO) was used in the exposure experiments. All chemicals were obtained from Sigma-Aldrich, unless stated otherwise. […] The viability of exposed cells was determined by cellular ATP levels using the CellTiter-Glo Luminescent Cell Viability Assay (Promega, Madison, WI, USA). The CellTiter Glo reagent was prepared according to the manufacturer's instructions. Briefly, the culture plate was equilibrated at room temperature for 30 min. Medium was removed from the plate, after which phosphate-buffered saline (PBS) and the CellTiter Glo reagent were added to each well in equal volumes. The plate was mixed for 2 min on an orbital shaker and incubated for an additional 10 min at room temperature. Luminescence was measured on the TriStar2 (Berthold Technologies, Bad Wildbad, Germany), and samples were normalized to (vehicle) control.
Background: Cellular ATP, detected with luciferase, serves as a proxy for viable cell number.

For data set [2], the system named is HepaRG. Description: Cytotoxicity (CellTiter-Glo ATP viability) in HepaRG cells, 48 h exposure. In kind it is cell-based. The note with it: Homo sapiens. On the procedure: Undifferentiated HepaRG cells were purchased from Biopredic International (Saint Grégoire, France). Cells were cultured (passage number between p18 and p28) in T75 flasks in culture medium consisting of William’s E medium (without phenol red; Thermo Fisher Scientific, Waltham, MA, USA) supplemented with 1% (v/v) penicillin-streptomycin (Thermo Fisher Scientific), 10% (v/v) fetal bovine serum (FBS; Thermo Fisher Scientific), 50 µM hydrocortisone 21-hemisuccinate (Sigma-Aldrich, St Louis, MO, USA), 2 mM GlutaMax (Thermo Fisher Scientific) and 5 µg/mL insulin (Sigma-Aldrich). For differentiation, cells were cultured for 7–10 days and upon confluence, the monolayer was switched to differentiation medium (culture medium supplemented with 1% (v/v) DMSO). After differentiation, cells were trypsinized using TrypLE (Thermo Fisher Scientific) and seeded at a density of 65,000 cells/well in a 96-well plate (cytotoxicity assay) or 130,000 cells/well in a 24-well plate (CYP activity assay). Cells were allowed to attach for 24 to 48 h. Before exposure, cells were washed with assay medium (culture medium without FBS), after which exposure was started. Cells plated in 96-well plates were exposed to a concentration range (six concentrations in 2x dilution) of five known hepatotoxic compounds for 48 h (single dose). Acetaminophen (CAS 103-90-2; 30 mM) and valproic acid (CAS 1069-66-5; 10 mM) were directly dissolved in assay medium (previously described for each hepatic cell model). […] For the latter, vehicle control (0.5% (v/v) DMSO) was used in the exposure experiments. All chemicals were obtained from Sigma-Aldrich, unless stated otherwise. […] The viability of exposed cells was determined by cellular ATP levels using the CellTiter-Glo Luminescent Cell Viability Assay (Promega, Madison, WI, USA). The CellTiter Glo reagent was prepared according to the manufacturer’s instructions. Briefly, the culture plate was equilibrated at room temperature for 30 min. Medium was removed from the plate, after which phosphate-buffered saline (PBS) and the CellTiter Glo reagent were added to each well in equal volumes. The plate was mixed for 2 min on an orbital shaker and incubated for an additional 10 min at room temperature. Luminescence was measured on the TriStar2 (Berthold Technologies, Bad Wildbad, Germany), and samples were normalized to (vehicle) control.

Data set [3] has as its system PHH. Description: Cytotoxicity (CellTiter-Glo ATP viability) in primary human hepatocytes, 48 h exposure. In kind it is cell-based. As to conditions: Hepatocyte. On the procedure: LiverPool cryoplateable hepatocytes (pool of 10 donors, mixed gender; BioIVT, Hicksville, NY, USA) were cultured in a collagen I (Sigma-Aldrich, St Louis, MO, USA) sandwich in INVITROGRO CP medium (BioIVT) complemented with the TORPEDO Antibiotic mix (BioIVT). Seeding density was 49,000 cells/well in a 96-well plate (cytotoxicity assay) or 350,000 cells/well in a 24-well plate (CYP activity assay), according to the manufacturer’s instructions. Exposure of the hepatocytes was started 48 h after seeding. For exposure assays, INVITROGRO HI medium (BioIVT) was used, as recommended. Cells plated in 96-well plates were exposed to a concentration range (six concentrations in 2x dilution) of five known hepatotoxic compounds for 48 h (single dose). Acetaminophen (CAS 103-90-2; 30 mM) and valproic acid (CAS 1069-66-5; 10 mM) were directly dissolved in assay medium (previously described for each hepatic cell model). […] For the latter, vehicle control (0.5% (v/v) DMSO) was used in the exposure experiments. All chemicals were obtained from Sigma-Aldrich, unless stated otherwise. […] The viability of exposed cells was determined by cellular ATP levels using the CellTiter-Glo Luminescent Cell Viability Assay (Promega, Madison, WI, USA). The CellTiter Glo reagent was prepared according to the manufacturer’s instructions. Briefly, the culture plate was equilibrated at room temperature for 30 min. Medium was removed from the plate, after which phosphate-buffered saline (PBS) and the CellTiter Glo reagent were added to each well in equal volumes. The plate was mixed for 2 min on an orbital shaker and incubated for an additional 10 min at room temperature. Luminescence was measured on the TriStar2 (Berthold Technologies, Bad Wildbad, Germany), and samples were normalized to (vehicle) control.

Where [4] appears, read: HL-ICOs, range over the four ICO donors, 48 h.
The mark [5] stands for this setting: Homo sapiens, 48 h, HL-ICOs, range over the four ICO donors.
[6] abbreviates: Homo sapiens, HL-ICOs differentiation day 12, ICO donor in first HL-ICO column, 48 h single dose, cell viability (ATP).
[7] abbreviates: Homo sapiens, HL-ICOs differentiation day 12, ICO donor in fourth HL-ICO column, 48 h single dose, cell viability (ATP).
Setting [8] is: Homo sapiens, HL-ICOs differentiation day 12, ICO donor in second HL-ICO column, 48 h single dose, cell viability (ATP).
Setting [9] is: Homo sapiens, HL-ICOs differentiation day 12, ICO donor in third HL-ICO column, 48 h single dose, cell viability (ATP).
Where [10] appears, read: 48 h single dose, median of three independent experiments, minimum and maximum EC50 within brackets.
[11] abbreviates: range of three independent experiments.
Setting [12] is: PHH (pool of 10 donors, collagen I sandwich), 48 h single dose, cell viability (ATP).

By EC50 is commonly meant the concentration that produces a half-maximal response. The low end stands for higher potency in that assay, the high end for lower potency in that assay.

Regarding `CC(=O)Nc1ccc(O)cc1` [Acetaminophen], the EC50 in data set [1] (setting [4]) is 24000 to 24900 µM; in data set [1] (setting [5]), 24000 to 26800 µM; in data set [1] (setting [6]) it was 24900 µM; in data set [1] (setting [7]) it was 24000 µM; in data set [1] (setting [8]), 24600 µM; in data set [1] (setting [9]), 26800 µM. Besides, the EC50 in data set [2] (setting [10]) was 4040 µM; in data set [2] (setting [11]) it was 3460 to 6040 µM; in data set [3] (PHH), 4190 µM; in data set [3] (setting [12]), 4190 µM.
In the case of `CCCC(CCC)C(=O)O` [Valproic Acid], the EC50 in data set [1] (setting [5]) was over 10000 µM; in data set [1] (setting [6]), over 10000 µM; in data set [1] (setting [7]), over 10000 µM; in data set [1] (setting [8]), over 10000 µM; in data set [1] (setting [9]), over 10000 µM; in data set [2] (setting [10]), 4580 µM. The EC50 was 4170 to 6070 µM in data set [2] (setting [11]), 9880 µM in data set [3] (PHH) and 9880 µM in data set [3] (setting [12]).
Turning to `C1CCC(C(CC2CCCCN2)C2CCCCC2)CC1` (stereo not shown) [Perhexiline], in data set [1] (HL-ICOs, three ICO donors, up to 31.5 µM, 48 h), the cytotoxicity result was “no cytotoxicity”. The concentration for a half-maximal effect (EC50) in data set [1] (setting [6]) is over 31.5 µM; in data set [1] (setting [7]) it was over 31.5 µM; in data set [1] (setting [8]), 9.68 µM; in data set [1] (setting [9]) it was over 31.5 µM; in data set [2] (setting [10]), 26 µM; in data set [2] (setting [11]), 10.5 to 26.4 µM. Further, in data set [3] (setting [12]), the EC50 worked out at 8.07 µM.
In the case of `Cc1c(C)c2c(c(C)c1O)CCC(C)(COc1ccc(CC3SC(=O)NC3=O)cc1)O2` (stereo not shown) [Troglitazone], the EC50 in data set [1] (setting [4]) is 23.1 to 90.8 µM; in data set [1] (setting [5]), 23.1 to 90.8 µM; in data set [1] (setting [6]), 42.8 µM; in data set [1] (setting [7]) it was 24.4 µM; in data set [1] (setting [8]), 90.8 µM; in data set [1] (setting [9]), 23.1 µM. The values for the EC50 in data set [2] (setting [10]), in data set [2] (setting [11]) and in data set [3] (setting [12]) were 45.1 µM, 14.9 to 45.2 µM and 57.1 µM, respectively.
Consider `O=C(O)Cc1ccccc1Nc1c(Cl)cccc1Cl` [Diclofenac], for which the EC50 is over 500 µM in data set [1] (Homo sapiens, 48 h, HL-ICOs, the other three ICO donors, higher than highest tested concentration); over 500 µM in data set [1] (setting [6]); over 500 µM in data set [1] (setting [8]); over 500 µM in data set [1] (setting [9]); 352 µM in data set [2] (setting [10]); 272 to 435 µM in data set [2] (setting [11]). The same compound returned an EC50 in data set [3] (setting [12]) of 421 µM.
